The structures appear in SMILES notation.

Sequence of Dipeptidyl peptidase 4 (P27487 whole entry): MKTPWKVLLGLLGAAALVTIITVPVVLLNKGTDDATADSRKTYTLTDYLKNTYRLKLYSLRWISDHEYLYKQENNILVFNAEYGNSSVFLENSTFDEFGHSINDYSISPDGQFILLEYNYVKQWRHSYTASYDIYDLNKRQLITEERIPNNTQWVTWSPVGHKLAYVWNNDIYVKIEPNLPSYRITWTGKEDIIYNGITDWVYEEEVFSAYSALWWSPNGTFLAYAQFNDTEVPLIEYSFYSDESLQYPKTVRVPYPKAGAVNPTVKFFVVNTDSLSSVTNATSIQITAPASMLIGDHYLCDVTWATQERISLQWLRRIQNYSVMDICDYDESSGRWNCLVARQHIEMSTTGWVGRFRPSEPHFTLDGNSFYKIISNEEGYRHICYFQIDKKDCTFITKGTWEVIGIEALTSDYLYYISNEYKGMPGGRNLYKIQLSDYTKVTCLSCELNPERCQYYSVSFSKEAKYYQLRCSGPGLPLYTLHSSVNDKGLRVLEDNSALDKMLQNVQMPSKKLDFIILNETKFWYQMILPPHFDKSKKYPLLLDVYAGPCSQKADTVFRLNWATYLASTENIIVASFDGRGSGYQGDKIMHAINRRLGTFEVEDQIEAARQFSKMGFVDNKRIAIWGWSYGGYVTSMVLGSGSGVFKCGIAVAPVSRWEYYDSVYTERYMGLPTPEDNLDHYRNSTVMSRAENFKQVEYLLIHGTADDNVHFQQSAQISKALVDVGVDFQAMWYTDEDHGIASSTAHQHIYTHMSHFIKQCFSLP

In one experiment the target is Dipeptidyl peptidase 2 (Homo sapiens, UniProt Q9UHL4). The experiment in a line: Inhibition of DPP2.
As to `N[C@@H](CC(=O)N1CCCN(C(=O)c2cccc(C(=O)O)c2)CC1)Cc1cc(F)c(F)cc1F`, the midpoint of inhibition, the IC50, lay at 46.8 µM.

In the case of `N[C@@H](CC(=O)N1CCCN(C(=O)c2cncc(C(=O)O)c2)CC1)Cc1cc(F)c(F)cc1F`, the IC50 (usually the concentration that inhibits the measured activity by half) stood at 99.4 µM.

Another experiment has as its target Dipeptidyl peptidase 4 (Homo sapiens, UniProt P27487).
In turn, `N[C@@H](CC(=O)N1CCCN(S(=O)(=O)c2ccc([N+](=O)[O-])cc2)CC1)Cc1cc(F)c(F)cc1F` had an IC50 of 405 nM.

Molecule `N[C@@H](CC(=O)N1CCCN(C(=O)c2cccc(C(=O)O)c2)CC1)Cc1cc(F)c(F)cc1F` returned an IC50 of 50 nM.

The molecule `N[C@@H](CC(=O)N1CCCNCC1)Cc1cc(F)c(F)cc1F` had an IC50 of 1440 nM.

Consider `CCN1CCCN(C(=O)C[C@H](N)Cc2cc(F)c(F)cc2F)CC1`, for which inhibition was half-maximal at 6400 nM (IC50).

Regarding `CS(=O)(=O)N1CCCN(C(=O)C[C@H](N)Cc2cc(F)c(F)cc2F)CC1`, 3100 nM corresponded to half-maximal inhibition (IC50).

`N[C@@H](CC(=O)N1CCCN(C(=O)OCc2ccccc2)CC1)Cc1cc(F)c(F)cc1F` showed an IC50 of 490 nM. Against the preceding molecule, the IC50 is about 6.3-fold lower.

In the case of `N[C@@H](CC(=O)N1CCCN(C(=O)c2ccc3c(c2)OCO3)CC1)Cc1cc(F)c(F)cc1F`, half-maximal inhibition (IC50) was put at 490 nM.

`N[C@@H](CC(=O)N1CCCN(C(=O)c2cncc(C(=O)O)c2)CC1)Cc1cc(F)c(F)cc1F` yielded an IC50 of 67 nM.

Consider `N[C@@H](CC(=O)N1CCCN(C(=O)c2ccc(C(=O)O)o2)CC1)Cc1cc(F)c(F)cc1F`, for which the IC50 was 260 nM.

Consider `N[C@@H](CC(=O)N1CCCN(C(=O)c2ccc(C(=O)O)nc2)CC1)Cc1cc(F)c(F)cc1F`, for which it took 150 nM to reach half-maximal inhibition (IC50).

Turning to `N[C@@H](CC(=O)N1CCCN(c2ncccn2)CC1)Cc1cc(F)c(F)cc1F`, the IC50 came to 597 nM.

As to `N[C@@H](CC(=O)N1CCCN(c2cnccn2)CC1)Cc1cc(F)c(F)cc1F`, the 50% inhibitory concentration (IC50) amounted to 423 nM.

With `NC(=O)c1ccc(C(=O)N2CCCN(C(=O)C[C@H](N)Cc3cc(F)c(F)cc3F)CC2)cc1`, the IC50 is 180 nM.

In turn, `Cc1ccc(S(=O)(=O)N2CCCN(C(=O)C[C@H](N)Cc3cc(F)c(F)cc3F)CC2)cc1` returned an IC50 of 350 nM.

`N[C@@H](CC(=O)N1CCCN(Cc2ccccc2)CC1)Cc1cc(F)c(F)cc1F` displayed an IC50 of 387 nM.

The molecule `N[C@@H](CC(=O)N1CCCN(C(=O)Nc2ccccc2)CC1)Cc1cc(F)c(F)cc1F` returned an IC50 of 1390 nM.

On to `N[C@@H](CC(=O)N1CCCN(C(=O)c2ccccc2)CC1)Cc1cc(F)c(F)cc1F`, for which the IC50 was 510 nM.

The molecule `N[C@@H](CC(=O)N1CCCN(C(=O)c2cccnc2)CC1)Cc1cc(F)c(F)cc1F` returned an IC50 of 410 nM.

For the molecule `N[C@@H](CC(=O)N1CCCN(C(=O)c2ccc(S(N)(=O)=O)cc2)CC1)Cc1cc(F)c(F)cc1F`, the IC50 is 288 nM.

Regarding `CC(=O)N1CCCN(C(=O)C[C@H](N)Cc2cc(F)c(F)cc2F)CC1`, the IC50 worked out at 3400 nM.

Regarding `N[C@@H](CC(=O)N1CCCN(S(=O)(=O)c2ccc(C(=O)O)cc2)CC1)Cc1cc(F)c(F)cc1F`, inhibition was half-maximal at 239 nM (IC50).

Take `CN1CCN(C(=O)N2CCCN(C(=O)C[C@H](N)Cc3cc(F)c(F)cc3F)CC2)CC1`: the IC50 was found to be 1500 nM.

`N[C@@H](CC(=O)N1CCCN(C(=O)Nc2ccc(C(=O)O)cc2)CC1)Cc1cc(F)c(F)cc1F` returned a half-maximal inhibitory concentration (IC50) of 788 nM.

The values are drawn from ChEMBL document CHEMBL1141018, “Synthesis and biological evaluation of homopiperazine derivatives with beta-aminoacyl group as dipeptidyl peptidase IV inhibitors” (Bioorg Med Chem Lett, 2008).
